# Data reported in PMC8115037, “Paracoccus denitrificans: a genetically tractable model system for studying respiratory complex I” (Scientific Reports, 2021).
# Like-named read-outs stand apart in the source and are kept apart here.
# How the values were obtained:
# [1] = biological target: T1, complex I (NADH:ubiquinone oxidoreductase), Pd-CI (Paracoccus denitrificans, UniProt A1B487+A1B495+A1B497); assay: NADH:DQ oxidoreductase assay, detergent-solubilized purified enzyme ([…] in proteoliposomes); assay type: biochemical
# T1 construct: gene nuoD; intact purified complex I, His6-tag on C-terminus of Nqo5 (Pd-Nqo5^His6); with multisubunit complex (14 core Nqo subunits plus PdNUMM, PdNUYM, PdN7BM)
# [2] = biological target: T1, complex I (NADH:ubiquinone oxidoreductase), Pd-CI; assay: as above; assay type: biochemical; remark: listed apart in the source
# T1 sequence (A1B496 entry or part of it): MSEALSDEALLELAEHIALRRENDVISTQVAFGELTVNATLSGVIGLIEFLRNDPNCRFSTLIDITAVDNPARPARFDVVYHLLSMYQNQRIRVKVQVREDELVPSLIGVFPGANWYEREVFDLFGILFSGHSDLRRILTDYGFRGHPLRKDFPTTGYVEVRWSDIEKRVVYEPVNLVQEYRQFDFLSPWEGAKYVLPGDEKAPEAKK
# T1 sequence (A1B495 whole entry): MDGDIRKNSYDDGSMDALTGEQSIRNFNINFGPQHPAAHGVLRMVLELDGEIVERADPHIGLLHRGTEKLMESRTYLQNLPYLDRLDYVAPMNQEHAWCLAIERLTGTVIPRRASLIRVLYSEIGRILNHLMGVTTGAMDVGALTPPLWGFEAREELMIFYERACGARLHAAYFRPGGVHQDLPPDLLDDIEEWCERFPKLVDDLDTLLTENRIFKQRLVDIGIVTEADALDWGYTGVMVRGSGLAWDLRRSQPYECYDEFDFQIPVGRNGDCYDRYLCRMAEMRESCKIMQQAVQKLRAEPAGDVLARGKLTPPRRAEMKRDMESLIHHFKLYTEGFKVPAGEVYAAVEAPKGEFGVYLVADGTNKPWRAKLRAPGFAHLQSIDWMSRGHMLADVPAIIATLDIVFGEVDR
# T1 sequence (A1B487 whole entry): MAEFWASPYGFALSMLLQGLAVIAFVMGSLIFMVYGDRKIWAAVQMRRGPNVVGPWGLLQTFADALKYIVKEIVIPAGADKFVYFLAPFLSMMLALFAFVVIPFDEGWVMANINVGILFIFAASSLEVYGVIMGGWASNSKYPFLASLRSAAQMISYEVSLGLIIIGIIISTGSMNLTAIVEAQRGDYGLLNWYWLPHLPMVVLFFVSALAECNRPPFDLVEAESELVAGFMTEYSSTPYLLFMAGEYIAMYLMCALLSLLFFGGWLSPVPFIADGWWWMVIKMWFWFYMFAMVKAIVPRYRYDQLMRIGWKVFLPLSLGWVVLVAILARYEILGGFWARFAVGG
# T1 sequence (A1B498 entry or part of it, further chain): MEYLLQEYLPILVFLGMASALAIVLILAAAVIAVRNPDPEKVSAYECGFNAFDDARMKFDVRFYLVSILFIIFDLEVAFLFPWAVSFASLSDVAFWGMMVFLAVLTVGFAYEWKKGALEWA
# T1 sequence (A1B497 whole entry): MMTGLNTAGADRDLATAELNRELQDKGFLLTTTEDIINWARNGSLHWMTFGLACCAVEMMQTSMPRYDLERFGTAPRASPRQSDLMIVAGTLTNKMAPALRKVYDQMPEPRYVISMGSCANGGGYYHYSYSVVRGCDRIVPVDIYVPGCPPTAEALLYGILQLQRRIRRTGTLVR
smiles,measurement,setting,value
C/C=C(\C)[C@H](O)[C@H](C)/C=C(C)/C=C/C/C(C)=C/Cc1nc(OC)c(OC)c(O)c1C [piericidin A],IC50,[1],0.072 ± 0.007 µM
C=C(C)[C@H]1Cc2c(ccc3c2O[C@@H]2COc4cc(OC)c(OC)cc4[C@@H]2C3=O)O1 [rotenone],IC50,[2],2.23 ± 0.185 µM
